For this assay, the target named is Mitogen-activated protein kinase kinase kinase kinase 1 (Homo sapiens, UniProt Q92918). Description: ADP-Glo kinase assay: HPK1 kinase activity was measured by Promega's ADP-Glo™ kinase assay. In this assay, 5 ng of recombinant human HPK1 (signalchem) is incubated with 5 μL of compounds (0.5% DMSO), 5 μL of MBP (0.5 μg/μl) and 5 μL of ATP (25 μM) in buffer (40 mM Tris, 7.5; 20 mM MgCl2; 0.1 mg/ml BSA; 5 μM DTT). The assay was started by incubating the reaction mixture in a 96-well plate at 30′ C for 40 minutes. After the incubation, 25 uL ADP-Glo reagent was added and the reaction was incubated at room temperature for 40-min to stop the reaction and degrade residual ATP. The ADP product was then converted to ATP by adding 50 uL per well of detection reagent. Luminescence was detected after 30-min room temperature incubation with the Molecular device I3X plate reader. The IC50 values were calculated from a series of percent inhibition values determined at a range of inhibitor concentration using software routines as implemented in the GraphPad Prism 7 software and SigmaPlot13.0.
Sequence of Mitogen-activated protein kinase kinase kinase kinase 1 (Q92918 whole entry): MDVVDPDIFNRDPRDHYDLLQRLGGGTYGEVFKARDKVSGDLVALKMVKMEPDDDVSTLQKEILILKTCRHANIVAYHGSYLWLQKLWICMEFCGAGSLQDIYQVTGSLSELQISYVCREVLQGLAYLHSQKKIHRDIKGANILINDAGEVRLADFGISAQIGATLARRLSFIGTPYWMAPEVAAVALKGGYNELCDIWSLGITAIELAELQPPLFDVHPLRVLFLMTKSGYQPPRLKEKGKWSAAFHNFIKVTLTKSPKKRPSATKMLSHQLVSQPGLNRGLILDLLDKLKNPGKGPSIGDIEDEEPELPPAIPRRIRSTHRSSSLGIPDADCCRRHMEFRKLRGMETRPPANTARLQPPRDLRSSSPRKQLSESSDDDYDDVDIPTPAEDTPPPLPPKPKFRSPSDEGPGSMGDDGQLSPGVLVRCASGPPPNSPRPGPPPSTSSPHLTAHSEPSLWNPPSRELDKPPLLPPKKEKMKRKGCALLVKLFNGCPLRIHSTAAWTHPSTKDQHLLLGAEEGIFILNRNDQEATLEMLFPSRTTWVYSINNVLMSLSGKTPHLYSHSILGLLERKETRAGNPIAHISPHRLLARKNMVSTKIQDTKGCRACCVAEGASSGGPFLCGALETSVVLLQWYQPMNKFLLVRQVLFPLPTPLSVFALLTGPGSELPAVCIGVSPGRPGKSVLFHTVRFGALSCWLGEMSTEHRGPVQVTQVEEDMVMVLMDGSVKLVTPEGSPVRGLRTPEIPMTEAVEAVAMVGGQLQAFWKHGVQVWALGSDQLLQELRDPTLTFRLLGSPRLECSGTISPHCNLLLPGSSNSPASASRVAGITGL

A word on the IC50: it is the concentration that gives 50% inhibition. Regarding `Cc1c(F)c(S(C)(=O)=O)c2[nH]ncc2c1-c1ccc2nc(NC(=O)[C@@H]3C[C@@H]3F)sc2n1`, the IC50 was over 1 µM.

Take `Cn1nccc1-c1c(F)c(Cl)c(-c2ccc3nc(NC(=O)[C@@H]4C[C@@H]4F)cn3c2)c2cn[nH]c12`: the IC50 is under 0.1 µM. With `CNC(=O)CSc1c(F)c(Cl)c(-c2ccc3nc(NC(=O)[C@@H]4C[C@@H]4F)sc3c2)c2cn[nH]c12`, the IC50 was under 0.1 µM.

For the compound `CSc1c(F)c(C)c(-c2ccn3nc(NC(=O)C4CC4)cc3c2)c2cn[nH]c12`, the IC50 is under 0.1 µM.

Take `CC(Nc1c(F)c(Cl)c(-c2ccc3nc(NC(=O)[C@@H]4C[C@@H]4F)cn3c2)c2cn[nH]c12)C(=O)N(C)C` (some centres undefined): the IC50 is under 0.1 µM.

`CCc1c(F)c(SC(C)C#N)c2[nH]ncc2c1-c1ccn2nc(NC(=O)[C@@H]3C[C@@H]3F)cc2c1` (some centres undefined): the IC50 is under 0.1 µM. As for `CC(=O)N(C)c1c(F)c(C)c(-c2ccc3nc(NC(=O)[C@@H]4C[C@@H]4F)cn3c2)c2cn[nH]c12`, the IC50 was under 0.1 µM. Regarding `CCN(C)c1c(F)c(C)c(-c2ccc3nc(NC(=O)[C@@H]4C[C@@H]4F)cn3c2)c2cn[nH]c12`, the IC50 is under 0.1 µM.

As for `CSCc1c(F)c(Cl)c(-c2ccc3nc(NC(=O)[C@@H]4C[C@@H]4F)cn3c2)c2cn[nH]c12`, the IC50 is under 0.1 µM. Then `COC(C)c1c(F)c(Cl)c(-c2ccc3nc(NC(=O)[C@@H]4C[C@@H]4F)cn3c2)c2cn[nH]c12` (some centres undefined), with under 0.1 µM; and `CSc1c(F)c(SC)c2[nH]ncc2c1-c1ccc2nc(NC(=O)[C@@H]3C[C@@H]3F)sc2c1`, with under 0.1 µM; and `COC(c1c(F)c(Cl)c(-c2ccc3nc(NC(=O)[C@@H]4C[C@@H]4F)cn3c2)c2cn[nH]c12)C(F)(F)F` (some centres undefined), with under 0.1 µM. The result for `N#CC(NC=O)c1c(F)c(Cl)c(-c2ccc3nc(NC(=O)[C@@H]4C[C@@H]4F)cn3c2)c2cn[nH]c12` (some centres undefined) reads under 0.1 µM; that for `CS(=O)(=O)Cc1c(F)c(Cl)c(-c2ccc3nc(NC(=O)[C@@H]4C[C@@H]4F)cn3c2)c2cn[nH]c12`, under 0.1 µM; that for `CSC(C)c1c(F)c(Cl)c(-c2ccc3nc(NC(=O)[C@@H]4C[C@@H]4F)cn3c2)c2cn[nH]c12` (some centres undefined), under 0.1 µM. In the case of `CCN(C)c1c(F)c(C)c(-c2ccc3nc(NC(=O)[C@@H]4C[C@@H]4F)sc3c2)c2cn[nH]c12`, the IC50 was under 0.1 µM. On to `O=C(Nc1cn2cc(-c3c(Cl)c(F)c(CO)c4[nH]ncc34)ccc2n1)[C@@H]1C[C@@H]1F`, for which the half-inhibitory concentration (IC50) was under 0.1 µM. The result for `Cn1ccnc1Sc1c(F)c(Cl)c(-c2ccc3nc(NC(=O)[C@@H]4C[C@@H]4F)cn3c2)c2cn[nH]c12` reads under 0.1 µM; that for `Cn1cccc1-c1c(F)c(Cl)c(-c2ccc3nc(NC(=O)[C@@H]4C[C@@H]4F)cn3c2)c2cn[nH]c12`, under 0.1 µM. The result for `Cn1ccc(-c2c(F)c(Cl)c(-c3ccc4nc(NC(=O)[C@@H]5C[C@@H]5F)cn4c3)c3cn[nH]c23)c1` reads under 0.1 µM; that for `CSc1c(F)c(C)c(-c2ccn3nc(NC(=O)[C@@H]4C[C@H]4F)cc3c2)c2cn[nH]c12`, under 0.1 µM; that for `O=C(Nc1cn2cc(-c3c(Cl)c(F)c(-c4cc[nH]c4)c4[nH]ncc34)ccc2n1)[C@@H]1C[C@@H]1F`, under 0.1 µM.

Consider `C[S+]([O-])Cc1c(F)c(Cl)c(-c2ccc3nc(NC(=O)[C@@H]4C[C@@H]4F)cn3c2)c2cn[nH]c12` (some centres undefined), for which the IC50 is under 0.1 µM. The result for `N#Cc1c(F)c(Cl)c(-c2ccc3nc(NC(=O)[C@@H]4C[C@@H]4F)sc3c2)c2cn[nH]c12` reads under 0.1 µM; that for `CC(O)c1c(F)c(Cl)c(-c2ccc3nc(NC(=O)[C@@H]4C[C@@H]4F)cn3c2)c2cn[nH]c12` (some centres undefined), under 0.1 µM. On to `O=C(Nc1cc2cc(-c3c(Cl)c(F)c(CO)c4[nH]ncc34)ccn2n1)[C@@H]1C[C@@H]1F`, for which the half-maximal inhibitory concentration (IC50) was under 0.1 µM.

On to `O=C(Nc1cc2cc(-c3c(C(F)(F)F)c(F)cc4[nH]ncc34)ccn2n1)[C@@H]1C[C@@H]1F`, for which the IC50 is under 0.1 µM. Take `CC(=O)N(C)c1c(F)c(C)c(-c2ccc3nc(NC(=O)[C@@H]4C[C@@H]4F)sc3n2)c2cn[nH]c12`: the IC50 was under 0.1 µM. Then `O=C(Nc1cc2cc(-c3c(Cl)c(F)c(C(O)C(F)(F)F)c4[nH]ncc34)ccn2n1)[C@@H]1C[C@@H]1F` (some centres undefined), with under 0.1 µM; and `O=C(Nc1cn2cc(-c3c(Br)c(F)cc4[nH]ncc34)ccc2n1)[C@@H]1C[C@@H]1F`, with under 0.1 µM. Consider `CC(c1c(F)c(Cl)c(-c2ccc3nc(NC(=O)[C@@H]4C[C@@H]4F)cn3c2)c2cn[nH]c12)n1ncnn1` (some centres undefined), for which the IC50 was under 0.1 µM.

For the compound `CCN(C)c1c(F)c(Cl)c(-c2ccc3nc(NC(=O)[C@@H]4C[C@@H]4F)sc3n2)c2cn[nH]c12`, the IC50 was under 0.1 µM. For `CSc1c(F)c(C)c(-c2ccn3nc(NC(=O)[C@H]4C[C@@H]4F)cc3c2)c2cn[nH]c12`, the IC50 is under 0.1 µM. `O=C(Nc1cn2cc(-c3c(Cl)c(F)c(NC4=NCCN4)c4[nH]ncc34)ccc2n1)[C@@H]1C[C@@H]1F`: the IC50 is under 0.1 µM. Turning to `O=C(Nc1cn2cc(-c3c(Cl)c(F)c(C(F)C(F)(F)F)c4[nH]ncc34)ccc2n1)[C@@H]1C[C@@H]1F` (some centres undefined), the IC50 is under 0.1 µM. The result for `CC(=O)Nc1c(F)c(C)c(-c2ccn3nc(NC(=O)[C@@H]4C[C@@H]4F)cc3c2)c2cn[nH]c12` reads under 0.1 µM. The result for `CCN(C)c1c(F)c(C)c(-c2ccc3nc(NC(=O)[C@@H]4C[C@@H]4F)sc3n2)c2cn[nH]c12` reads under 0.1 µM. Then `O=C(Nc1nc2ccc(-c3c(Cl)c(F)c(N4CCCC4)c4[nH]ncc34)cc2s1)[C@@H]1C[C@@H]1F`, with under 0.1 µM; and `O=C(Nc1cn2cc(-c3c(Cl)c(F)c(NC4CCOC4)c4[nH]ncc34)ccc2n1)[C@@H]1C[C@@H]1F` (some centres undefined), with under 0.1 µM; and `CSc1c(F)c(C)c(-c2ccn3nc(NC(=O)[C@H]4C[C@H]4F)cc3c2)c2cn[nH]c12`, with under 0.1 µM. On to `CSc1c(F)c(C)c(-c2ccc3nc(NC(=O)[C@@H]4C[C@@H]4F)sc3n2)c2cn[nH]c12`, for which the IC50 is under 0.1 µM. Then `Cc1c(F)c([S+](C)[O-])c2[nH]ncc2c1-c1ccn2nc(NC(=O)[C@@H]3C[C@@H]3F)cc2c1` (some centres undefined), with under 0.1 µM. Take `CC(=O)N(C)c1c(F)c(C)c(-c2ccn3nc(NC(=O)[C@@H]4C[C@@H]4F)cc3c2)c2cn[nH]c12`: the IC50 is under 0.1 µM. Regarding `CC(F)c1c(F)c(Cl)c(-c2ccc3nc(NC(=O)[C@@H]4C[C@@H]4F)cn3c2)c2cn[nH]c12` (some centres undefined), the IC50 is under 0.1 µM. The result for `C=Cc1c(F)cc2[nH]ncc2c1-c1ccc2nc(NC(=O)[C@@H]3C[C@@H]3F)sc2c1` reads under 0.1 µM. The result for `O=C(Nc1cn2cc(-c3c(Cl)c(F)c(C(O)C(F)(F)F)c4[nH]ncc34)ccc2n1)[C@@H]1C[C@@H]1F` (some centres undefined) reads under 0.1 µM; that for `CCOC(c1c(F)c(Cl)c(-c2ccc3nc(NC(=O)[C@@H]4C[C@@H]4F)cn3c2)c2cn[nH]c12)C(F)(F)F` (some centres undefined), under 0.1 µM. As for `N#CCSc1c(F)c(Cl)c(-c2ccn3nc(NC(=O)[C@@H]4C[C@@H]4F)cc3c2)c2cn[nH]c12`, the IC50 was under 0.1 µM. Then `O=C(Nc1cn2cc(-c3c(Cl)c(F)c(CN4CCCC4)c4[nH]ncc34)ccc2n1)[C@@H]1C[C@@H]1F`, with under 0.1 µM.

These data come from ChEMBL document CHEMBL5729714, “Indazoles as hematopoietic progenitor kinase 1 (HPK1) inhibitors and methods using same” (2023).
